According to patent publication US20260166127A1, “USE OF ANALOG OF C-TYPE NATRIURETIC PEPTIDE FOR THE TREATMENT OF FGFR-RELATED BONE REPAIR AND BONE FORMATION IMPAIRMENT” (INSTITUT NATIONAL DE LA SANTÉ ET DE LA RECHERCHE MÉDICALE, priority 2021, published 2026):

How the values were obtained:
[1] = tested on: mouse model (Fgfr3^Y367C/+); settings: human ACH cells and Fgfr3^Y367C/+ mouse model; Lorget et al 2012; cited from earlier work
[2] = tested on: HCH mouse model (Fgfr3^N534K/+), mandible bone repair; experiment: Non-stabilized mandibular fracture repair in HCH mice treated with BMN111 (microCT, repair grade); assay type: in vivo
Experimental: Mandibular bone repair was studied in the HCH mouse model (Fgfr3^N534K/+). The experiments were performed in adult animals at 6 weeks of age, and mice were euthanized at 4 key points: during bone repair (10, 14, 21 days post fracture), and at the end of the normal bone healing process i.e. at 28 days post fracture.
Vertical mandibular fractures were performed in the ascending ramus region in Fgfr3^N534K/+ and Fgfr3^+/+ mice. This is a non-stabilized mandibular fracture protocol allowing to analyze the endochondral bone repair process.
Four batches (n=100) of Fgfr3^N534K/+ and Fgfr3^+/+ mandible fractures corresponding to different key stages of repair were studied (day 10, day 14, day 21, day 28). Using collagen type II (proliferative cartilage), type X (hypertrophic cartilage) and type I (bone) immunolabelling, we observed that the endochondral process is disturbed, we noted a delayed cartilage resorption, a reduction in the size of hypertrophic chondrocytes area and a defect in bone formation within the repair callus in Fgfr3^N534K/+ compared to Fgfr3^+/+. […] We observed the presence of pseudarthrosis (fibrosis in the callus) in Fgfr3^N534K/+ mice whereas we observed 100% of bone in Fgfr3^+/+ callus. Considering the quality of the newly formed bone at day 28, we defined four grades of repair and classified the mice according to their repair grade (from 1 to 4). The defective repair is significant in Fgfr3^N534K/+ compared to Fgfr3^+/+ (FIG. 1C).
In order to analyze the bone microarchitecture, we performed microCT scans. We observed an alteration in the microarchitecture of callus formation from day10 to day 28 Fgfr3^N534K/+ compared to Fgfr3^+/+.
HCH mice (Fgfr3^N534K/+) were treated with BMN111 (subcutaneous injection at 0.8 mg/kg, 3 times per week) from day 0 (facture of the mandible) to day 14 or day 28. The bone repair analyses were evaluated by microCT scans at day 14 and day 28 post fracture. […] BV/TV is increased at day 14 (+29%; p<0.005) in treated HCH mice (n=8) compared to untreated HCH mice (n=9). BV/TV is increased at day 28 post fracture and (+24% p<0.005) in the HCH mice (n=9) compared to the untreated HCH mice (n=14) (FIGS. 1A and 1B).

[3] = day 28 grade repair, treated HCH mice
[4] = microCT, day 28 post fracture, treated (n=9) vs untreated (n=14) HCH mice, BMN111 s.c. 0.8 mg/kg 3 times per week, p<0.005

Substance: Vosoritide (PGQEHPNARKYKGANKKGLSKGCFGLKLDRIGSMSGLGC; chains of the INN, looked up) [BMN111, CNP analog, NPR2 agonist; formula C176H290N56O51S3, CAS Number 1480724-61-5]
- effect on long bone growth and the skull [1]: beneficial effect
- Complete bone healing (grade 1), mice observed [2, 3]: 7/9
- Restoration of bone continuity, but presence of mild bone defects (grade 2), mice observed [2, 3]: 2/9
- BV/TV increase ([2]; microCT, day 14 post fracture, treated (n=8) vs untreated (n=9) HCH mice, BMN111 s.c. 0.8 mg/kg 3 times per week, p<0.005): +29%
- callus volume ([2]; microCT, day 14 post fracture, treated vs untreated HCH mice, BMN111 s.c. 0.8 mg/kg 3 times per week): unchanged
- BV/TV increase [2, 4]: +24%
- decrease of the volume of the callus [2, 4]: −30.9%
- pseudarthrosis in the callus ([2]; treated HCH mice, mandible fracture callus): without pseudarthrosis
